Results published in patent US8557823B2, “Family of PFKFB3 inhibitors with anti-neoplastic activities” (Advanced Cancer Therapeutics, LLC, priority 2007, dated 2013).
pIC50: −log10 of the molar value.

What was measured:
HL-60 leukemia cells = assay: In vitro growth inhibition, HL-60; format: cell-based, human; details: Homo sapiens, 50% of vehicle control cell growth
Description: The K562, HL-60, MDA-MB231, and melanoma (CRL-11174) human cancer cell lines were purchased from ATCC (American Tissue Type Culture Collection, Manassas, Va., United States of America). HeLa, A549, Lewis Lung Carcinoma, MDA-MB231, and melanoma cells were grown in Dulbecco's Modified Eagle Medium (DMEM) (Hyclone, Logan, Utah, United States of America) supplemented with 10% fetal bovine serum (Hyclone, Logan, Utah, United States of America) and 50 μg/mL gentamicin sulfate (Invitrogen, Carlsbad, Calif., United States of America). The HL-60, K562, and Jurkat cell lines were grown in RPMI-1640 medium (Hyclone, Logan, Utah, United States of America) supplemented with 10% fetal bovine serum and 50 μg/mL gentamicin sulfate. […]
Cells were collected 48 hours post-treatment, and cell number and viability were determined by trypan blue exclusion. […]

[1] = system: PFKFB3+/- ht/LT/ras fibroblasts; assay: Growth inhibition of PFKFB3 haplo-insufficient transformed fibroblasts; format: cell-based, mice; details: Mus musculus, Fibroblast, 48 hours
From the text: (§1) FIG. 6B is a bar graph showing the anti-proliferative effects of 3PO in fibroblasts from wild-type (+/+) or haplo-insufficient (+/−) PFKFB3 mice which were subsequently immortalized and transformed with human telomerase (ht), large T antigen (LT), and oncogenic H-ras^v12. Cell numbers (expressed as % of cell numbers of control cells) for transformed wild type (+/+) cells are shown in solid bars and numbers for transformed haplo-insufficient (+/−) cells are shown in striped bars. As indicated at the bottom of the graph, cells were incubated with vehicle or increasing amounts of 3PO (5, 10, 20, 30, 40, or 60 μM). Viable cells were counted after 48 hours. The bars represent the mean±STD of triplicate values from a representative experiment. * p-value<0.01 represents statistical difference between vehicle control and 3PO treated samples.
(§2) Cells were collected 48 hours post-treatment, and cell number and viability were determined by trypan blue exclusion. IC50 values were calculated as the compound 1 concentration needed for 50% of vehicle treated cell growth.
(§3) One of the most difficult challenges of new anti-neoplastic therapies is in situ target validation. To address this question, two different cell lines with varying levels of PFKFB3 expression were studied. […]

[2] = system: +/+ ht/LT/ras fibroblasts; assay: Growth inhibition of wild-type transformed fibroblasts; format: cell-based, mice; details: Mus musculus, Fibroblast, 48 hours
From the text: as §1, §2, §3

[3] = system: Lewis Lung Carcinoma xenografts; assay: Lewis Lung Carcinoma xenografts in C57/Blk6 mice; format: in vivo; details: 0.07 mg/g IP once daily, 14 days
Description: FIG. 7A is a graph showing the effects of 3PO treatment on the growth of Lewis Lung Carcinoma tumor xenografts in C57/Blk6 mice. Tumors were measured daily using blunt end Vernier calipers, and mice with established tumors (130-190 mg) were blindly randomized into either a DMSO control group (•, n=11) or a 3PO treatment group (∘, n=14). Experimental mice were weighed and given daily intraperitoneal (i.p.) injections of either 50 μL DMSO or 0.07 mg/g 3PO in 50 μL DMSO at the indicated time points. Arrows (↓) represent control or 3PO daily administrations. Statistically significant difference between DMSO and 3PO groups was obtained after initial injection (Day 2, p-value<0.0003).
Exponentially growing MDA-MB231 and HL-60 cells were collected in appropriate medium, washed twice and resuspended in PBS at a concentration of 20×10^7 cells/mL. […] Body weight and tumor growth were monitored daily throughout the study. Tumor masses were determined by measurement with Vernier calipers using the formula: mass (mg)=[width (mm^2)×length (mm)]/2. […]
The first tumor model tested consisted of mouse Lewis Lung Carcinoma xenografts grown in C57/Blk6 mice. For this study, mice were given IP injections of either DMSO or the calculated dose of 1 once daily for the duration of the study (14 days). […]

SMILES: O=C(/C=C/c1cccnc1)c1ccncc1 [Compound 1, 3-(3-pyridinyl)-1-(4-pyridinyl)-2-propen-1-one]
- pIC50 (HL-60 leukemia cells): 5.35
- pIC50 [1]: 4.59
- pIC50 [2]: 4.31
- suppression of xenograft growth compared to DMSO control [3]: 73%
